The term IC50 denotes the concentration at which inhibition is half-maximal.

Active and inactive are the calls of the source. No rule for the calls is given here. Some results are limits rather than exact numbers.

The subject of one assay is Cytotoxicity. The experiment in a line: inhibitors of PAF-induced NFkB signaling in CF airway cells, dose response, cell-based, uHTS hits, panel, cytotoxicity readout (AID 624344). To be noted: CF bronchial epithelial cells, mean of runs.
Experiment in assay [1]: as above
As to conditions: CF bronchial epithelial cells, PAF-induced NFkB reporter inhibition; with PAF, mean of runs.

Take `CC1=C(C(=O)OCc2ccc3c(c2)OCO3)C(c2ccc(O)c([N+](=O)[O-])c2)NC(=O)N1` (stereo unspecified): the IC50 in the assay with Cytotoxicity was > 79 µM (inactive); in assay [1], 1.71 µM.
In the same order, the values of `COc1ccc(NC(=O)Cn2ncn3nc(-c4ccc(OC)cc4)cc3c2=O)cc1` are 5.34 µM and 6.69 µM.
Consider `Cc1c(Cl)cccc1NC(=O)COC(=O)c1c2c(nc3ccccc13)CCN(Cc1ccccc1)C2`, for which the IC50 was 13.5 µM in the assay with Cytotoxicity and 6.85 µM in assay [1].
As to `COc1ccc(-c2ccccc2[C@H]2[C@@H]3C=CC[C@@H](C)[C@@H]3C(=O)N2Cc2ccccc2)cc1`, the half-inhibitory concentration (IC50) in the assay on Cytotoxicity was 19.6 µM; in assay [1], 13.6 µM.
In the same order, the values of `COc1ccc2cc3c(N)nn(C(=O)c4ccccc4[N+](=O)[O-])c3nc2c1` are 40.2 µM and 0.54 µM.
In the same order, the values of `O=C(NCCCSc1ccccc1)c1cc(Cl)ccc1O` are 7.97 µM and 5.03 µM.
In the same order, the values of `CC(=O)Oc1c(Br)cc(N(C(C)=O)S(=O)(=O)c2ccccc2)c2ccccc12` are 9.15 µM and 7.32 µM.
In the case of `Cc1ccc(N(C)C(=O)c2cc(S(=O)(=O)N3CCCCC3)c[nH]2)cc1`, the IC50 with Cytotoxicity was > 79 µM (inactive); in assay [1], 11.5 µM.
In the same order, the values of `C[C@@H](NC(=O)c1coc(=O)c(Br)c1)c1ccccc1` are 4.95 µM and 4.1 µM.
In the same order, the values of `N#CC(C#N)=C1SC(=Nc2ccccc2)C(=Nc2ccccc2)N1c1ccccc1` are 12.4 µM and 8.12 µM.
As for `COc1cccc(-c2ccc3ncnc(NCc4cccs4)c3c2)c1`, the 50% inhibitory concentration (IC50) in the assay on Cytotoxicity was 13.6 µM; in assay [1], 2.91 µM.
In the same order, the values of `C=C1C(=O)[C@]23C[C@H]1CCC2[C@]1(C)C(=O)CC[C@@](C)(C(=O)O)C1C[C@@H]3O` (stereo partly specified) are 14.4 µM and 0.96 µM.
In the same order, the values of `c1cnc2ccc(-n3ccnc3)cc2c1` are 60 µM (inactive) and 10.3 µM.
Regarding `C=CCc1cc(S(=O)(=O)c2ccc(O)c(CC=C)c2)ccc1O`, the results for the IC50 (in the assay with Cytotoxicity; in assay [1]) were 56.8 µM (inactive) and 6.34 µM, respectively.
For `COc1ccc(-n2c(C)c(C(C)=O)c3cc(O)ccc32)cc1`, the IC50 was > 79 µM (inactive) in the assay on Cytotoxicity and 0.308 µM in assay [1].
On to `c1ccc2c(c1)Nc1ccncc1S2`, for which the half-inhibitory concentration (IC50) in the assay with Cytotoxicity was 44.1 µM; in assay [1], 1.46 µM.
In the same order, the values of `COc1ccc(-c2csc(/C(C#N)=C\c3ccc(O)c([N+](=O)[O-])c3)n2)cc1OC` are 45.9 µM and 2.82 µM.
Take `FC(F)Sc1ccc(NC(=S)NC(c2ccccc2)c2ccccc2)cc1`: the concentration for half-maximal inhibition (IC50) was 9.19 µM in the assay with Cytotoxicity and 6.53 µM in assay [1].
On to `O=C(Nc1ccc(N2CCN(C(=O)c3ccccc3F)CC2)cc1)c1cncc(Br)c1`, for which the IC50 with Cytotoxicity is 54.7 µM (inactive); in assay [1], 2.67 µM.
In the same order, the values of `CC1(Cc2cccc(F)c2)C(=O)Nc2ccc(-c3cccnc3)cc21` (stereo unspecified) are 67.9 µM (inactive) and 1.58 µM.
In the same order, the values of `COc1ccc2c(c1)c(C(C)=O)c(C)n2-c1ccc(C(C)=O)cc1` are 44.5 µM and 2.83 µM.
In the same order, the values of `COc1ccc(COc2cc(-c3cccc(OC)c3)nc3ccc(NC(=O)c4cccnc4)cc23)cc1` are 11.5 µM and 4.27 µM.
As for `CCOCC(=O)NC1CCc2cc(OC(=O)COCC)c(OC)c(OC)c2-c2ccc(SC)c(=O)cc21` (stereo unspecified), the IC50 with Cytotoxicity is 44.5 µM. Besides, the IC50 entry in assay [1] was “inactive”.
In the same order, the values of `CCn1c(=O)c2c(cnn2C)c2ccccc21` are 46.2 µM and 2.18 µM.
In the same order, the values of `COc1cc2oc(=O)cc(-c3ccc(-c4ccc(N(C)C)cc4)cc3)c2c(OC)c1OC` are 39.9 µM and 11.6 µM.
With `O=C(CCC1COc2ccccc2O1)Nc1ccc(Cl)cn1` (stereo unspecified), the IC50 with Cytotoxicity was 50.9 µM (inactive); in assay [1] it was 10.2 µM.
As to `O=C(NNC(=S)Nc1cccc(C(F)(F)F)c1)c1cccc(Cl)c1`, the IC50 is 9.54 µM in the assay on Cytotoxicity and 4.81 µM in assay [1].
In the same order, the values of `CC(=O)Oc1ccccc1C(=O)Oc1ccc(/C=N/n2cnnc2)cc1` are 59.5 µM (inactive) and “inactive”.
In the same order, the values of `CN1CCN(c2ncnc3scc(-c4ccccc4Cl)c23)CC1` are 57.2 µM (inactive) and 3.89 µM.
In the same order, the values of `CN(c1cccc(Cl)c1)S(=O)(=O)c1cccc(C(=O)Nc2nc3ccccc3[nH]2)c1` are 12.2 µM and 6.19 µM.
On to `O=c1cc(-c2ccccc2Cl)oc2cc(O)cc(O)c12`, for which the values for the IC50 (with Cytotoxicity; in assay [1]) were 55.8 µM (inactive) and 5.33 µM, respectively.
Consider `CC(C)(C)c1nc(NC(=O)Nc2ccccc2)sc1Br`, for which the values for the half-maximal inhibitory concentration (IC50) (with Cytotoxicity; in assay [1]) were 12.6 µM and 6.59 µM, respectively.
`COC(=O)c1ccc2c(c1)C(C)(C)C(/C=C/c1ccccc1O)=[N+]2C`: the half-maximal inhibitory concentration (IC50) in the assay on Cytotoxicity was 35.4 µM; in assay [1], 5.88 µM.
In the same order, the values of `CC1=C(/C=C/C(C)=C/C=C/C(C)=C\C(=O)O)C(C)(C)CCC1` are > 79 µM (inactive) and 0.64 µM.
With `CCCc1cc(-c2[nH]ncc2-c2ccc3c(c2)OCCCO3)c(O)cc1O`, the IC50 in the assay with Cytotoxicity is 25.9 µM; in assay [1], 8.75 µM.
In the same order, the values of `O=[N+]([O-])c1ccc(NC(=S)NCCc2ccc(F)cc2)cc1` are 4.52 µM and 4.58 µM.
In the same order, the values of `CC(=O)c1c(O)cc(O)c(C(C)=O)c1O` are 5.8 µM and 5.34 µM.
In the same order, the values of `CCn1c(Oc2ccccc2F)nc2c1c(=O)n(C)c(=O)n2C` are > 79 µM (inactive) and 3.57 µM.
With `CCC1=C(CC2NCCc3ccccc32)CC2c3cc(OC)c(OC)cc3CCN2C1` (stereo unspecified), the half-inhibitory concentration (IC50) in the assay with Cytotoxicity is 30 µM; in assay [1], 4.34 µM.
In the same order, the values of `COc1ccc(-n2nnnc2C(CCSC)N2CCC(n3c(=O)[nH]c4ccccc43)CC2)cc1` (stereo unspecified) are 13.7 µM and 6.48 µM.
In the same order, the values of `Cc1nn(-c2cccc(Cl)c2)c2nc(C(F)(F)F)[nH]c(=O)c12` are 27.4 µM and 16.9 µM.
In the same order, the values of `COc1cccc(NC(=O)Nc2nnc(CC(=O)NCc3ccccc3)s2)c1` are 52.3 µM (inactive) and 5.09 µM.
As to `COc1ccc(COC(=O)C2=C(C)NC(=O)NC2c2ccc(F)cc2)cc1` (stereo unspecified), the concentration for half-maximal inhibition (IC50) in the assay on Cytotoxicity was 39.8 µM; in assay [1], 8.9 µM.
In the same order, the values of `Cc1ccc2occ(/C=N/NC(=O)c3ccccc3C)c(=O)c2c1` are 43.2 µM and 1.36 µM.
In the same order, the values of `CCOC(=O)Oc1c(OC)cc(C(=O)O[C@@H]2C[C@@H]3CN4CCc5c([nH]c6cc(OC)ccc56)[C@H]4C[C@@H]3[C@H](C(=O)OC)[C@H]2OC)cc1OC` are 58.8 µM (inactive) and 4.91 µM.
In the same order, the values of `CCC(=NCCc1c(C)[nH]c2ccc(C)cc12)C1=C(O)CC(c2ccccc2)CC1=O` (stereo unspecified) are > 79 µM (inactive) and 7.89 µM.
Turning to `COc1cc(/C=C2\SC(=O)N(CCNC(=O)c3sc4cc(F)ccc4c3Cl)C2=O)cc(OC)c1OC`, the concentration for half-maximal inhibition (IC50) in the assay on Cytotoxicity was 11.3 µM; in assay [1] it was 7.99 µM.
In the same order, the values of `COC1(OC)C=CC(=O)C=C1NC(=O)c1ccccc1OC(C)=O` are 15.2 µM and 4.11 µM.

Values taken from PubChem BioAssay AID624344 (Sanford-Burnham Center for Chemical Genomics, 2012).
